Each structure is given as a SMILES string.

The nature of this assay: Inhibition of ROCK1 in human THP1 cells assessed as inhibition of MCP1-induced cell migration.
As to `c1ccc2c(c1)CC(Nc1cc(Nc3ccncc3)nc(N3CCNCC3)n1)C2` [N4-(2,3-dihydro-1H-inden-2-yl)-2-(piperazin-1-yl)-N6-(pyridin-4-yl)pyrimidine-4,6-diamine], the IC50 is 12 nM.
The value for `C[C@@H]1CN(c2nc(Nc3ccncc3)nc(NC3Cc4ccccc4C3)n2)CCN1` [(R)-N2-(2,3-dihydro-1H-inden-2-yl)-6-(3-methylpiperazin-1-yl)-N4-(pyridin-4-yl)-1,3,5-triazine-2,4-diamine] was 26 nM; that for `c1ccc2c(c1)CC(Nc1cc(N3CCNCC3)nc(Nc3ccncc3)n1)C2` [N4-(2,3-dihydro-1H-inden-2-yl)-6-(piperazin-1-yl)-N2-(pyridin-4-yl)pyrimidine-2,4-diamine] was 154 nM.
The figure for `c1ccc2c(c1)CC(Oc1nc(Nc3ccncc3)nc(N3CCNCC3)n1)C2` [4-(2,3-dihydro-1H-inden-2-yloxy)-6-(piperazin-1-yl)-N-(pyridin-4-yl)-1,3,5-triazin-2-amine] is 57 nM.

Usually IC50 stands for the concentration at which inhibition is half-maximal.

Source of the values: BindingDB's records for doi:10.1016/j.bmcl.2009.09.046 (Ligand Pharmaceuticals, 2009).
